pIC50: −log10 of the molar value.
Test: Binding affinity towards folate binding protein

pIC50 | Compound
8.09 | Cc1ccc(S(=O)(=O)N(CCCS(=O)(=O)[O-])C(=O)c2c3ccccc3[n+](CCCCCCCCCC(=O)NCCCCCCNC(=O)c3ccc(N(Cc4cnc5nc(N)nc(O)c5n4)C(=O)C(F)(F)F)cc3)c3ccccc23)cc1
8.07 | Cc1ccc(S(=O)(=O)N(CCCC(=O)NCCCCCCNC(=O)c2ccc(N(Cc3cnc4nc(N)nc(O)c4n3)C(=O)C(F)(F)F)cc2)C(=O)c2c3ccccc3[n+](CCCS(=O)(=O)[O-])c3ccccc23)cc1

Reference: ChEMBL document CHEMBL1147573, “Chemiluminescence quenching of pteroic acid-N-sulfonyl-acridinium-9-carboxamide conjugates by folate binding protein” (Bioorg Med Chem Lett, 2004)
